Tests used:
Test in all cases: Test D controlled growth environment herbicide test, pre- and postemergence
Format in all cases: in vivo
[1] = system: field poppy (Papaver rhoeas)
Text: (§1) Seeds of plant species selected from bluegrass (annual bluegrass, Poa annua), blackgrass (Alopecurus myosuroides), Canada thistle (Cirsium arvense), canarygrass (Phalaris minor), chickweed (common chickweed, Stellaria media), geranium, cutleaf (cutleaf geranium, Geranium dissectum), galium (catchweed bedstraw, Galium aparine), bromegrass, downy (downy bromegrass, Bromus tectorum), field poppy (Papaver rhoeas), field violet (Viola arvensis), foxtail, green (green foxtail, Setaria viridis), deadnettle (henbit deadnettle, Lamium amplexicaule), ryegrass, Italian (Italian ryegrass, Lolium multiflorum), kochia (Kochia scoparia), lambsquarters (Chenopodium album), oilseed rape (Brassica napus), pigweed (Amaranthus retroflexus), chamomile (scentless chamomile, Matricaria inodora), Russian thistle (Salsola kali), speedwell (bird's-eye speedwell, Veronica persica), barley, spring (spring barley, Hordeum vulgare), wheat, spring (spring wheat, Triticum aestivum), buckwheat, wild (wild buckwheat, Polygonum convolvulus), mustard, wild (wild mustard, Sinapis arvensis), oat, wild (wild oat, Avena fatua), radish, wild (wild radish, Raphanus raphanistrum), windgrass (Apera spica-venti), barley, winter (winter barley, Hordeum vulgare), and wheat, winter (winter wheat, Triticum aestivum) were planted into a silt loam soil and treated preemergence with test chemicals formulated in a non-phytotoxic solvent mixture which included a surfactant.
(§2) At the same time, these species were planted in pots containing Redi-Earth® planting medium (Scotts Company, 14111 Scottslawn Road, Marysville, Ohio 43041) comprising spaghnum peat moss, vermiculite, wetting agent and starter nutrients and treated with postemergence applications of the test chemicals formulated in the same manner. Plants ranged in height from 2 to 18 cm (1- to 4-leaf stage). Treated plants and controls were maintained in a controlled growth environment for 14 to 21 d after which time all species were compared to controls and visually evaluated. Plant response ratings, summarized in Table D, are based on a scale of 0 to 100 where 0 is no effect and 100 is complete control. A dash (-) response means no test result.

[2] = system: wheat, winter (winter wheat, Triticum aestivum)
Text: as §1, §2

[3] = system: field violet (Viola arvensis)
Text: as §1, §2

[4] = system: oilseed rape (Brassica napus)
Text: as §1, §2

[5] = system: pigweed (Amaranthus retroflexus)
Text: as §1, §2

[6] = system: windgrass (Apera spica-venti)
Text: as §1, §2

[7] = system: deadnettle (henbit deadnettle, Lamium amplexicaule)
Text: as §1, §2

[8] = system: blackgrass (Alopecurus myosuroides)
Text: as §1, §2

[9] = system: ryegrass, Italian (Italian ryegrass, Lolium multiflorum)
Text: as §1, §2

[10] = system: wheat, spring (spring wheat, Triticum aestivum)
Text: as §1, §2

[11] = system: chickweed (common chickweed, Stellaria media)
Text: as §1, §2

[12] = system: radish, wild (wild radish, Raphanus raphanistrum)
Text: as §1, §2

[13] = Postemergence, 31 g ai/ha, scale 0 to 100 (0 no effect, 100 complete control)
[14] = Postemergence, 125 g ai/ha, visual rating on scale 0 (no effect) to 100 (complete control), 14 to 21 d
[15] = Postemergence, 250 g ai/ha, scale 0 to 100 (0 no effect, 100 complete control)
[16] = Preemergence, 62 g ai/ha, scale 0 to 100 (0 no effect, 100 complete control)
[17] = Preemergence, 125 g ai/ha, scale 0 to 100 (0 no effect, 100 complete control)
[18] = Preemergence, 250 g ai/ha, scale 0 to 100 (0 no effect, 100 complete control)
[19] = postemergence, 62 g ai/ha, scale 0 to 100, 0 no effect, 100 complete control

## Cc1ccc2sc(C)c(-c3c(O)c(C)nn(C)c3=O)c2c1 [Compound 1, 4-(2,5-dimethylbenzo[b]thien-3-yl)-5-hydroxy-2,6-dimethyl-3(2H)-pyridazinone]
[1]; [13]
  Field Poppy plant response rating: 95
[1]; [14]
  Plant response rating, Field Poppy: 100
[1]; [15]
  Plant response rating, Field Poppy: 95
[1]; Preemergence, 31 g ai/ha
  Plant response rating (scale of 0 to 100), Field Poppy: 95
[1]; [16]
  Plant response rating, Field Poppy: 95
[1]; [17]
  Plant response rating, Field Poppy: 95
[1]; [18]
  Plant response rating, Field Poppy: 95
[1]; [19]
  Plant response rating, Field Poppy: 95
[2]; [13]
  Wheat, Winter plant response rating: 0
[2]; [14]
  Plant response rating, Wheat, Winter: 0
[2]; [15]
  Plant response rating, Wheat, Winter: 5
[2]; Preemergence, 31 g ai/ha
  Plant response rating (scale of 0 to 100), Wheat, Winter: 0
[2]; [16]
  Plant response rating, Wheat, Winter: 0
[2]; [17]
  Plant response rating, Wheat, Winter: 5
[2]; [18]
  Plant response rating, Wheat, Winter: 5
[2]; [19]
  Plant response rating, Wheat, Winter: 0
[3]; [13]
  Field Violet plant response rating: 85
[3]; [14]
  Plant response rating, Field Violet: 90
[3]; [15]
  Plant response rating, Field Violet: 95
[3]; Preemergence, 31 g ai/ha
  Plant response rating (scale of 0 to 100), Field Violet: 95
[3]; [16]
  Plant response rating, Field Violet: 100
[3]; [17]
  Plant response rating, Field Violet: 100
[3]; [18]
  Plant response rating, Field Violet: 100
[3]; [19]
  Plant response rating, Field Violet: 75
[4]; [13]
  Oilseed Rape plant response rating: 0
[4]; [14]
  Plant response rating, Oilseed Rape: 35
[4]; [15]
  Plant response rating, Oilseed Rape: 60
[4]; Preemergence, 31 g ai/ha
  Plant response rating (scale of 0 to 100), Oilseed Rape: 0
[4]; [16]
  Plant response rating, Oilseed Rape: 0
[4]; [17]
  Plant response rating, Oilseed Rape: 5
[4]; [18]
  Plant response rating, Oilseed Rape: 20
[4]; [19]
  Plant response rating, Oilseed Rape: 15
[5]; [13]
  Pigweed plant response rating: 80
[5]; [14]
  Plant response rating, Pigweed: 100
[5]; [15]
  Plant response rating, Pigweed: 100
[5]; Preemergence, 31 g ai/ha
  Plant response rating (scale of 0 to 100), Pigweed: 70
[5]; [16]
  Plant response rating, Pigweed: 100
[5]; [17]
  Plant response rating, Pigweed: 100
[5]; [18]
  Plant response rating, Pigweed: 100
[5]; [19]
  Plant response rating, Pigweed: 90
[6]; [13]
  Windgrass plant response rating: 10
[6]; [14]
  Plant response rating, Windgrass: 50
[6]; [15]
  Plant response rating, Windgrass: 70
[6]; Preemergence, 31 g ai/ha
  Plant response rating (scale of 0 to 100), Windgrass: 15
[6]; [16]
  Plant response rating, Windgrass: 60
[6]; [17]
  Plant response rating, Windgrass: 85
[6]; [18]
  Plant response rating, Windgrass: 100
[6]; [19]
  Plant response rating, Windgrass: 25
[7]; [13]
  Deadnettle plant response rating: 35
[7]; [14]
  Plant response rating, Deadnettle: 35
[7]; [15]
  Plant response rating, Deadnettle: 70
[7]; Preemergence, 31 g ai/ha
  Plant response rating (scale of 0 to 100), Deadnettle: 0
[7]; [16]
  Plant response rating, Deadnettle: 0
[7]; [17]
  Plant response rating, Deadnettle: 0
[7]; [18]
  Plant response rating, Deadnettle: 60
[7]; [19]
  Plant response rating, Deadnettle: 35
[8]; [13]
  Blackgrass plant response rating: 40
[8]; [14]
  Plant response rating, Blackgrass: 70
[8]; [15]
  Plant response rating, Blackgrass: 80
[8]; Preemergence, 31 g ai/ha
  Plant response rating (scale of 0 to 100), Blackgrass: 35
[8]; [16]
  Plant response rating, Blackgrass: 70
[8]; [17]
  Plant response rating, Blackgrass: 85
[8]; [18]
  Blackgrass plant response rating: 90
[8]; [19]
  Plant response rating, Blackgrass: 50
[9]; [13]
  Ryegrass, Italian plant response rating: 65
[9]; [14]
  Plant response rating, Ryegrass, Italian: 85
[9]; [15]
  Plant response rating, Ryegrass, Italian: 85
[9]; Preemergence, 31 g ai/ha
  Plant response rating (scale of 0 to 100), Ryegrass, Italian: 100
[9]; [16]
  Plant response rating, Ryegrass, Italian: 100
[9]; [17]
  Plant response rating, Ryegrass, Italian: 100
[9]; [18]
  Plant response rating, Ryegrass, Italian: 100
[9]; [19]
  Plant response rating, Ryegrass, Italian: 75
[10]; [13]
  Wheat, Spring plant response rating: 0
[10]; [14]
  Plant response rating, Wheat, Spring: 10
[10]; [15]
  Plant response rating, Wheat, Spring: 15
[10]; Preemergence, 31 g ai/ha
  Plant response rating (scale of 0 to 100), Wheat, Spring: 0
[10]; [16]
  Plant response rating, Wheat, Spring: 0
[10]; [17]
  Plant response rating, Wheat, Spring: 0
[10]; [18]
  Plant response rating, Wheat, Spring: 10
[10]; [19]
  Plant response rating, Wheat, Spring: 0
[11]; [13]
  Chickweed plant response rating: 80
[11]; [14]
  Plant response rating, Chickweed: 90
[11]; [15]
  Plant response rating, Chickweed: 100
[11]; Preemergence, 31 g ai/ha
  Plant response rating (scale of 0 to 100), Chickweed: 100
[11]; [16]
  Plant response rating, Chickweed: 90
[11]; [17]
  Plant response rating, Chickweed: 100
[11]; [18]
  Plant response rating, Chickweed: 100
[11]; [19]
  Plant response rating, Chickweed: 80
[12]; [13]
  Radish, Wild plant response rating: 10
[12]; [14]
  Plant response rating, Radish, Wild: 30
[12]; [15]
  Plant response rating, Radish, Wild: 60
[12]; Preemergence, 31 g ai/ha
  Plant response rating (scale of 0 to 100), Radish, Wild: 0
[12]; [16]
  Plant response rating, Radish, Wild: 0
[12]; [17]
  Plant response rating, Radish, Wild: 15
[12]; [18]
  Plant response rating, Radish, Wild: 100
[12]; [19]
  Plant response rating, Radish, Wild: 20

From patent US10597388B2, “Pyridazinone herbicides” (FMC CORPORATION, priority 2014, dated 2020)
